# Oligonucleotides are written 5' to 3', each unit as a sugar letter and its base; * is a phosphorothioate linkage, no mark a phosphodiester; rarer units and linkages stand in square brackets, end groups in braces. Plain capitals give the bases only. e = 2'-O-(2-methoxyethyl) (MOE); [5mC] = 5-methylcytosine; d = 2'-deoxy (DNA)
# Test system: human CD40 mRNA
# Assay: Inhibition of CD40 mRNA levels by oligonucleotides (real-time RT-PCR)
# Assay type: cell-based
# Parameters: concentration or dose not given beside the values
# Details: 2'-MOE gapmers, 18 nucleotides, phosphorothioate throughout; averaged from three experiments
# Protocol: When cells reach about 80% confluency, they are treated with oligonucleotide. For cells grown in 96-well plates, wells are washed once with 200 μl Opti-MEM-1 reduced-serum medium (Life Technologies) and then treated with 130 μl of Opti-MEM-1 containing 3.75 μg/ml LIPOFECTIN (Life Technologies) and the desired oligonucleotide at a final concentration of 150 nM. After 4 hours of treatment, the medium was replaced with fresh medium. Cells were harvested 16 hours after oligonucleotide treatment.
# Poly(A)+ mRNA was isolated according to Miura et al. (Clin. Chem., 1996, 42, 1758). Briefly, for cells grown on 96-well plates, growth medium was removed from the cells and each well was washed with 200 ul cold PBS. 60 ul lysis buffer (10 mM Tris-HCl, pH 7.6, 1 mM EDTA, 0.5 M NaCl, 0.5% NP-40, 20 mM vanadyl-ribonucleoside complex) was added to each well, the plate was gently agitated and then incubated at room temperature for five minutes. 55 ul of lysate was transferred to Oligo d(T) coated 96 well plates (AGCT Inc., Irvine, Calif.). Plates were incubated for 60 minutes at room temperature, washed 3 times with 200 ul of wash buffer (10 mM Tris-HCl pH 7.6, 1 mM EDTA, 0.3 M NaCl). After the final wash, the plate was blotted on paper towels to remove excess wash buffer and then air-dried for 5 minutes. 60 ul of elution buffer (5 mM Tris-HCl pH 7.6), preheated to 70° C. was added to each well, the plate was incubated on a 90° hot plate for 5 minutes, and the eluate then transferred to a fresh 96 well plate. Cells grown on 100 mm or other standard plates may be treated similarly, using appropriate volumes of all solutions.
# Quantitation of CD40 mRNA levels was determined by real-time PCR (RT-PCR) using the ABI PRISM 7700 Sequence Detection System (PE-Applied Biosystems, Foster City, Calif.) according to manufacturer's instructions. This is a closed-tube, non-gel-based, fluorescence detection system which allows high-throughput quantitation of polymerase chain reaction (PCR) products in real-time.
# As opposed to standard PCR, in which amplification products are quantitated after the PCR is completed, products in RT-PCR are quantitated as they accumulate. This is accomplished by including in the PCR reaction an oligonucleotide probe that anneals specifically between the forward and reverse PCR primers, and contains two fluorescent dyes. A reporter dye (e.g., JOE or FAM, PE-Applied Biosystems, Foster City, Calif.) is attached to the 5′ end of the probe and a quencher dye (e.g., TAMRA, PE-Applied Biosystems, Foster City, Calif.) is attached to the 3′ end of the probe. When the probe and dyes are intact, reporter dye emission is quenched by the proximity of the 3′ quencher dye. During amplification, annealing of the probe to the target sequence creates a substrate that can be cleaved by the 5′-exonuclease activity of Taq polymerase.
# With each cycle, additional reporter dye molecules are cleaved from their respective probes, and the fluorescence intensity is monitored at regular (six-second) intervals by laser optics built into the ABI PRISM 7700 Sequence Detection System. In each assay, a series of parallel reactions containing serial dilutions of mRNA from untreated control samples generates a standard curve that is used to quantitate the percent inhibition after antisense oligonucleotide treatment of test samples.
# RT-PCR reagents were obtained from PE-Applied Biosystems, Foster City, Calif. RT-PCR reactions were carried out by adding 25 ul PCR cocktail (1× Taqman buffer A, 5.5 mM MgCl2, 300 uM each of dATP, dCTP and dGTP, 600 uM of dUTP, 100 nM each of forward primer, reverse primer, and probe, 20 U RNAse inhibitor, 1.25 units AmpliTaq Gold, and 12.5 U MuLV reverse transcriptase) to 96 well plates containing 25 ul poly(A) mRNA solution. […]
row,Substance,% Inhibition (Inhibition of CD40 mRNA Levels by Chimeric Phosphorothioate Oligonucleotides) [%]
1,19278 (eT*eT*eT*eT*dG*dA*dT*dA*dA*dA*dG*dA*dC*dC*eA*eG*e[5mC]*eA; antisense) [compound 19278],30.58
2,19242 (antisense e[5mC]*eT*eG*eA*dG*dG*dT*dG*dC*dC*dC*dT*dT*dC*eT*eG*e[5mC]*eT) [compound 19242],69.84
3,19224 (antisense e[5mC]*eA*e[5mC]*eA*dA*dA*dG*dA*dA*dC*dA*dG*dC*dA*e[5mC]*eT*eG*eA) [compound 19224],40.25
4,19294 (eA*e[5mC]*eT*eG*dA*dC*dT*dG*dG*dG*dC*dA*dT*dA*eG*e[5mC]*eT*e[5mC]; antisense) [compound 19294],11.55
5,19277 (eA*e[5mC]*e[5mC]*eA*dG*dC*dA*dC*dC*dA*dA*dG*dA*dG*eG*eA*eT*eG; antisense) [compound 19277],3.48
6,19260 (antisense e[5mC]*eA*eT*eT*dG*dG*dA*dG*dA*dA*dG*dA*dA*dG*e[5mC]*e[5mC]*eG*eA) [compound 19260],41.31
7,19221 (antisense eG*eG*eT*eG*dG*dT*dT*dC*dT*dG*dG*dA*dT*dG*eG*eA*e[5mC]*eA) [compound 19221],81.33
8,19236 (antisense e[5mC]*eT*e[5mC]*eT*dG*dT*dT*dC*dC*dA*dG*dG*dT*dG*eT*e[5mC]*eT*eA) [compound 19236],62.19
9,19230 (antisense eG*eT*eG*e[5mC]*dA*dG*dT*dC*dA*dC*dT*dC*dA*dC*e[5mC]*eA*eG*eT) [compound 19230],82.04
10,19249 (antisense eG*eG*eA*e[5mC]*dA*dC*dA*dG*dC*dT*dC*dT*dC*dA*e[5mC]*eA*eG*eG) [compound 19249],0.00
11,19275 (eG*eG*eG*eA*dT*dC*dA*dC*dC*dA*dC*dC*dA*dG*eG*eG*e[5mC]*eT; antisense) [compound 19275],57.94
12,19252 (antisense eA*eA*eG*e[5mC]*dC*dG*dG*dG*dC*dG*dA*dG*dC*dA*eT*eG*eA*eG) [compound 19252],32.36
13,19269 (eG*eT*eT*eT*dG*dT*dG*dC*dC*dT*dG*dC*dC*dT*eG*eT*eT*eG; antisense) [compound 19269],70.10
14,19274 (e[5mC]*eA*e[5mC]*e[5mC]*dA*dC*dC*dA*dG*dG*dG*dC*dT*dC*eT*e[5mC]*eA*eG; antisense) [compound 19274],23.08
15,19273 (eT*e[5mC]*eA*eG*dC*dC*dG*dA*dT*dC*dC*dT*dG*dG*eG*eG*eA*e[5mC]; antisense) [compound 19273],0.00
16,19245 (antisense eA*e[5mC]*eA*eG*dG*dT*dG*dC*dA*dG*dA*dT*dG*dG*eT*eG*eT*e[5mC]) [compound 19245],73.31
17,19263 (eT*e[5mC]*eG*eA*dA*dA*dG*dC*dA*dG*dA*dT*dG*dA*e[5mC]*eA*e[5mC]*eA; antisense) [compound 19263],59.28
18,19253 (antisense eA*eA*eT*e[5mC]*dT*dG*dC*dT*dT*dG*dA*dC*dC*dC*e[5mC]*eA*eA*eA) [compound 19253],0.00
19,19257 (antisense eG*e[5mC]*eA*eG*dG*dG*dC*dT*dC*dG*dC*dA*dG*dA*eT*eG*eG*eT) [compound 19257],74.95

# Same assay, conditions: oligodeoxynucleotides with phosphorothioate backbones throughout; averages from three experiments
row,Substance,% INHIB. (Inhibition of CD40 mRNA Levels by Phosphorothioate Oligodeoxynucleotides) [%]
1,18678 (DNA dT*dT*dG*dG*dT*dC*dT*dC*dA*dC*dA*dG*dC*dT*dT*dG*dT*dC; antisense) [compound 18678],0.00
2,18682 (DNA dG*dT*dC*dT*dT*dG*dT*dT*dT*dG*dT*dG*dC*dC*dT*dG*dC*dC; antisense) [compound 18682],0.00
3,18702 (DNA dC*dT*dG*dT*dC*dT*dC*dT*dC*dC*dT*dG*dC*dA*dC*dT*dG*dA; antisense) [compound 18702],0.00
4,18635 (DNA dG*dC*dA*dG*dT*dG*dG*dG*dT*dG*dG*dT*dT*dC*dT*dG*dG*dA; antisense) [compound 18635],0.00
5,18703 (DNA dG*dG*dT*dG*dC*dA*dG*dC*dC*dT*dC*dA*dC*dT*dG*dT*dC*dT; antisense) [compound 18703],0.00
6,18661 (DNA dG*dG*dA*dC*dA*dC*dA*dG*dC*dT*dC*dT*dC*dA*dC*dA*dG*dG; antisense) [compound 18661],0.00
7,18705 (DNA dC*dT*dT*dC*dT*dG*dC*dC*dT*dG*dC*dA*dC*dC*dC*dC*dT*dG; antisense) [compound 18705],0.00
8,18641 (DNA dT*dC*dA*dC*dT*dC*dA*dC*dC*dA*dG*dT*dT*dT*dC*dT*dG*dT; antisense) [compound 18641],0.00
9,18646 (DNA dG*dA*dA*dG*dG*dC*dA*dT*dT*dC*dC*dG*dT*dT*dT*dC*dA*dG; antisense) [compound 18646],9.00
10,18686 (DNA dC*dA*dC*dC*dA*dC*dC*dA*dG*dG*dG*dC*dT*dC*dT*dC*dA*dG; antisense) [compound 18686],23.31
11,18660 (DNA dT*dA*dC*dA*dG*dT*dG*dC*dC*dA*dG*dC*dC*dT*dT*dC*dT*dT; antisense) [compound 18660],7.80
12,18647 (DNA dT*dT*dC*dA*dC*dC*dG*dC*dA*dA*dG*dG*dA*dA*dG*dG*dC*dA; antisense) [compound 18647],0.00
13,18623 (DNA dC*dC*dA*dG*dG*dC*dG*dG*dC*dA*dG*dG*dA*dC*dC*dA*dC*dT; antisense) [compound 18623],30.71
14,18693 (DNA dG*dT*dC*dG*dG*dG*dA*dA*dA*dA*dT*dT*dG*dA*dT*dC*dT*dC; antisense) [compound 18693],0.00
15,18701 (DNA dC*dT*dC*dT*dT*dT*dG*dC*dC*dA*dT*dC*dC*dT*dC*dC*dT*dG; antisense) [compound 18701],4.38
